Data published in PubChem BioAssay (NCI).
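96-well plates; 48 h exposure; 5 concentrations. Endpoints by linear interpolation between flanking doses. Not reached: highest tested concentration assigned. GI50 is the concentration that inhibits growth by half. At the TGI there is no net growth.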

Legend:
Assay in all cases: NCI tumour cell line growth inhibition, 48 h
[1] = system: SR leukemia
[2] = system: RXF 393 renal
[3] = system: CAKI-1 renal
[4] = system: NCI-H226 lung
[5] = system: ACHN renal
[6] = system: SK-MEL-28 melanoma
[7] = system: A549 NSCLC
[8] = system: NCI-H460 lung
[9] = system: HL-60(TB) leukemia
[10] = system: M14 melanoma
[11] = system: OVCAR-3 ovarian
[12] = system: RPMI-8226 leukemia
[13] = system: CCRF-CEM leukemia
[14] = system: SF-295 CNS
[15] = system: 786-0 renal
[16] = system: SN12C renal
[17] = system: DU-145 prostate
[18] = system: UO-31 renal
[19] = system: EKVX NSCLC
[20] = system: SK-MEL-5 melanoma
[21] = system: BT-549 breast
[22] = system: MOLT-4 leukemia
[23] = system: IGROV1 ovarian
[24] = system: KM12 colon
[25] = system: COLO 205 colon
[26] = system: HCT-116 colon
[27] = system: OVCAR-8 ovarian
[28] = system: PC-3 prostate
[29] = system: HCT-15 colon
[30] = system: K-562 leukemia
[31] = system: TK-10 renal
[32] = system: SF-539 CNS
[33] = system: SK-MEL-2 melanoma
[34] = system: SF-268 CNS
[35] = system: MDA-MB-435
[36] = system: UACC-62 melanoma
[37] = system: HT29 colon
[38] = system: SNB-75 CNS
[39] = system: NCI-H23 lung
[40] = system: HOP-62 NSCLC
[41] = system: MCF7 breast
[42] = system: SNB-19 CNS
[43] = system: SW-620 colon
[44] = system: LOX IMVI melanoma
[45] = system: NCI/ADR-RES ovarian
[46] = system: HS 578T breast
[47] = system: T-47D breast
[48] = system: U251 CNS
[49] = system: SK-OV-3 ovarian
[50] = system: OVCAR-4 ovarian
[51] = system: MDA-MB-231 breast
[52] = system: HOP-92 NSCLC
[53] = system: MALME-3M melanoma
[54] = system: A498 renal
[55] = system: HCC-2998 colon
[56] = system: OVCAR-5 ovarian

## CCN(CC)c1ccc(-c2cc(-c3cc(OC)c(OC)c(OC)c3)nc(N3CCC(O)CC3)c2C#N)cc1
[1]
  GI50: 399 nM
  TGI: 2610 nM
[2]
  GI50: 193 nM
  TGI: 2930 nM
[3]
  GI50: 33.4 nM
  TGI: 708 nM
[4]
  GI50: 756 nM
  TGI: 5770 nM
[5]
  GI50: 406 nM
  TGI: > 42500 nM
[6]
  GI50: 879 nM
  TGI: 3760 nM
[7]
  GI50: 326 nM
[8]
  GI50: 245 nM
  TGI: 1620 nM
[9]
  GI50: 497 nM
  TGI: 2330 nM
[10]
  GI50: 262 nM
  TGI: 799 nM
[11]
  GI50: 1170 nM
  TGI: 3020 nM
[12]
  GI50: 232 nM
  TGI: 4780 nM
[13]
  GI50: 600 nM
  TGI: > 100000 nM
[14]
  GI50: 169 nM
  TGI: 435 nM
[15]
  GI50: 337 nM
  TGI: 20300 nM
[16]
  GI50: 626 nM
  TGI: 3190 nM
[17]
  GI50: 877 nM
  TGI: 14600 nM
[18]
  GI50: 274 nM
  TGI: 1820 nM
[19]
  GI50: 613 nM
  TGI: > 100000 nM
[20]
  GI50: 156 nM
  TGI: 365 nM
[21]
  GI50: 911 nM
  TGI: 3890 nM
[22]
  GI50: 621 nM
  TGI: 5170 nM
[23]
  GI50: 373 nM
  TGI: > 27700 nM
[24]
  GI50: 512 nM
  TGI: 2980 nM
[25]
  GI50: 488 nM
  TGI: 2110 nM
[26]
  GI50: 281 nM
  TGI: 1710 nM
[27]
  GI50: 441 nM
  TGI: 7440 nM
[28]
  GI50: 713 nM
  TGI: > 100000 nM
[29]
  GI50: 260 nM
  TGI: 1930 nM
[30]
  GI50: 353 nM
  TGI: 2130 nM
[31]
  GI50: 1100 nM
  TGI: 6920 nM
[32]
  GI50: 554 nM
  TGI: 2470 nM
[33]
  GI50: 289 nM
  TGI: 889 nM
[34]
  GI50: 988 nM
  TGI: 3130 nM
[35]
  GI50: 272 nM
  TGI: 1120 nM
[36]
  GI50: 264 nM
  TGI: 662 nM
[37]
  GI50: 277 nM
  TGI: 1280 nM
[38]
  GI50: 321 nM
  TGI: 3040 nM
[39]
  GI50: 870 nM
  TGI: 4680 nM
[40]
  GI50: 1010 nM
  TGI: 11900 nM
[41]
  GI50: 628 nM
[42]
  GI50: 1720 nM
  TGI: 7420 nM
[43]
  GI50: 448 nM
  TGI: 12700 nM
[44]
  GI50: 41.9 nM
  TGI: 172 nM
[45]
  GI50: 272 nM
  TGI: 5950 nM
[46]
  GI50: 3940 nM
  TGI: > 100000 nM
[47]
  GI50: 495 nM
  TGI: 3800 nM
[48]
  GI50: 398 nM
  TGI: 1800 nM
[49]
  GI50: 1800 nM
  TGI: > 31600 nM
[50]
  GI50: 789 nM
  TGI: > 100000 nM
[51]
  GI50: 214 nM
  TGI: 1770 nM
[52]
  GI50: 215 nM
  TGI: 689 nM
[53]
  GI50: 303 nM
  TGI: 1180 nM
[54]
  GI50: 1070 nM
  TGI: 14200 nM
[55]
  GI50: 374 nM
  TGI: 2130 nM
[56]
  GI50: 469 nM
  TGI: > 21800 nM
